Values quoted from earlier work in patent US20210137911A1, “NOVEL CHRONOTHERAPY BASED ON CIRCADIAN RHYTHMS” (THE TRUSTEES OF THE UNIVERSITY OF PENNSYLVANIA, priority 2014, published 2021).

Settings: half-life of therapeutic compound as listed in Table 1; cited from earlier work

Row | Structure (SMILES) | ½ Life
1 | Cc1c(OCC(F)(F)F)ccnc1C[S+]([O-])c1nc2ccccc2[nH]1 (centres unmarked) [Lansoprazole] | 1.5 h
2 | CC(C)OC(=O)CCC/C=C\C[C@@H]1[C@@H](CC[C@@H](O)CCc2ccccc2)[C@H](O)C[C@@H]1O [Latanoprost] | 0.283 h
3 | Nc1cccc2c1CN(C1CCC(=O)NC1=O)C2=O (centres unmarked) [Lenalidomide] | 3 h
4 | C=CCN1CC[C@]23CCCC[C@H]2[C@H]1Cc1ccc(O)cc13 [Levallorphan] | 1 h
5 | c1ccc([C@H]2CN3CCSC3=N2)cc1 [Levamisole] | 4.4 h
6 | C[C@@H]1CC(=O)NN=C1c1ccc(NN=C(C#N)C#N)cc1 [Levosimendan] | 1 h
7 | CN1C(C(=O)Nc2ccccn2)=C(O)c2sc(Cl)cc2S1(=O)=O [Lornoxicam] | 3 h
8 | CCCCc1nc(Cl)c(CO)n1Cc1ccc(-c2ccccc2-c2nn[nH]n2)cc1 [Losartan, reference compound] | 1 h
9 | CC[C@H](C)C(=O)O[C@H]1C[C@@H](C)C=C2C=C[C@H](C)[C@H](CC[C@@H]3C[C@@H](O)CC(=O)O3)[C@H]21 [Lovastatin] | 5.3 h
10 | CN1CCN(C2=Nc3ccccc3Oc3ccc(Cl)cc32)CC1 [Loxapine] | 4 h
11 | COC(=O)Nc1nc2ccc(C(=O)c3ccccc3)cc2[nH]1 [Mebendazole] | 2.5 h
12 | Cc1cccc(Nc2ccccc2C(=O)O)c1C [Mefenamic acid] | 2 h
13 | COc1ccc2[nH]cc(CCNC(C)=O)c2c1 [Melatonin] | 0.5833 h
14 | CN[C@@H](C)Cc1ccccc1 [Methamphetamine] | 4 h
15 | Cn1cc[nH]c1=S [Methimazole] | 5 h
16 | CN1C(=O)CC(C)(c2ccccc2)C1=O (centres unmarked) [Methsuximide] | 1.4 h
17 | C[C@H]1C[C@@H]2[C@H]([C@@H](O)C[C@@]3(C)[C@H]2CC[C@]3(O)C(=O)CO)[C@@]2(C)C=CC(=O)C=C12 [Methylprednisolone] | 1 h
18 | OCCN1C[C@H](O)[C@@H](O)[C@H](O)[C@H]1CO [Miglitol] | 2 h
19 | Cc1[nH]c(=O)c(C#N)cc1-c1ccncc1 [Milrinone] | 2.3 h
20 | COc1cc2c(cc1OC)[C@@H](Cc1cc(OC)c(OC)c(OC)c1)[N+](C)(CCCOC(=O)CC/C=C/CCC(=O)OCCC[N+]1(C)CCc3cc(OC)c(OC)cc3[C@H]1Cc1cc(OC)c(OC)c(OC)c1)CC2 (some centres unmarked) [Mivacurium] | 1.7 h

Row | Structure (SMILES) | ½ Life
21 | O=C(NCCN1CCOCC1)c1ccc(Cl)cc1 [Moclobemide] | 1 h
22 | CCOC(=O)[C@H](CCc1ccccc1)N[C@@H](C)C(=O)N1Cc2cc(OC)c(OC)cc2C[C@H]1C(=O)O [Moexipril] | 1 h
23 | C[C@@H]1C[C@H]2[C@@H]3CCC4=CC(=O)C=C[C@]4(C)[C@@]3(Cl)[C@@H](O)C[C@]2(C)[C@@]1(O)C(=O)CCl [Mometasone] | 5.8 h
24 | CCOC(=O)Nc1ccc2c(c1)N(C(=O)CCN1CCOCC1)c1ccccc1S2 [Moricizine] | 2 h
25 | CCCCCCC(C)(C)c1cc(O)c2c(c1)OC(C)(C)C1CCC(=O)CC21 (centres unmarked) [Nabilone] | 2 h
26 | C=CCN1CC[C@]23c4c5ccc(O)c4O[C@H]2C(=O)CC[C@@]3(O)[C@H]1C5 [Naloxone] | 0.5 h
27 | CNS(=O)(=O)CCc1ccc2[nH]cc(C3CCN(C)CC3)c2c1 [Naratriptan] | 5 h
28 | CC(C)[C@H]1CC[C@H](C(=O)N[C@H](Cc2ccccc2)C(=O)O)CC1 [Nateglinide] | 1.5 h
29 | CCc1nn(CCCN2CCN(c3cccc(Cl)c3)CC2)c(=O)n1CCOc1ccccc1 [Nefazodone] | 2 h
30 | O=C(O)c1cccnc1Nc1cccc(C(F)(F)F)c1 [Niflumic Acid] | 2.5 h
31 | COCCOC(=O)C1=C(C)NC(C)=C(C(=O)OC(C)C)C1c1cccc([N+](=O)[O-])c1 (centres unmarked) [Nimodipine] | 1.7 h
32 | CC(=O)Oc1ccccc1C(=O)Nc1ncc([N+](=O)[O-])s1 [Nitazoxanide] | 3.5 h
33 | O=C(O)c1cc(/N=N/c2ccc(O)c(C(=O)O)c2)ccc1O [Olsalazine] | 0.9 h
34 | COc1ccc2[nH]c([S+]([O-])Cc3ncc(C)c(OC)c3C)nc2c1 (centres unmarked) [Omeprazole] | 0.5 h
35 | Cc1nccn1CC1CCc2c(c3ccccc3n2C)C1=O (centres unmarked) [Ondansetron] | 5.7 h
36 | CCCCCCCCCCC[C@@H](C[C@@H]1OC(=O)[C@H]1CCCCCC)OC(=O)[C@H](CC(C)C)NC=O [Orlistat] | 1 h
37 | CCOC(=O)C1=C[C@@H](OC(CC)CC)[C@H](NC(C)=O)[C@@H](N)C1 [Oseltamivir] | 1 h
38 | C[C@]12COC(=O)C[C@@H]1CC[C@@H]1[C@@H]2CC[C@@]2(C)[C@H]1CC[C@]2(C)O [Oxandrolone] | 0.55 h
39 | C=CCOc1ccccc1OCC(O)CNC(C)C (centres unmarked) [Oxprenolol] | 1 h
40 | Cn1c(=O)c2[nH]cnc2n(C)c1=O [Oxtriphylline] | 3 h

Row | Structure (SMILES) | ½ Life
41 | COc1ccc2c3c1O[C@H]1C(=O)CC[C@@]4(O)[C@@H](C2)N(C)CC[C@]314 [Oxycodone] | 4.5 h
42 | CN1CC[C@]23c4c5ccc(O)c4O[C@H]2C(=O)CC[C@@]3(O)[C@H]1C5 [Oxymorphone] | 1.3 h
43 | COc1ccnc(C[S+]([O-])c2nc3ccc(OC(F)F)cc3[nH]2)c1OC (centres unmarked) [Pantoprazole] | 1 h
44 | C[C@H](/C=C/[C@H](C)C(C)(C)O)[C@H]1CC[C@H]2/C(=C/C=C3C[C@@H](O)C[C@H](O)C3)CCC[C@]12C [Paricalcitol] | 4 h
45 | Nc1nc2[nH]cc(CCc3ccc(C(=O)N[C@@H](CCC(=O)O)C(=O)O)cc3)c2c(=O)[nH]1 [Pemetrexed] | 3.5 h
46 | OC[C@H]1O[C@@H](n2cnc3c2NC=NC[C@H]3O)C[C@@H]1O [Pentostatin] | 5.7 h
47 | C1CCC(C(CC2CCCCN2)C2CCCCC2)CC1 (centres unmarked) [Perhexiline] | 2 h
48 | CCC[C@H](N[C@@H](C)C(=O)N1[C@H](C(=O)O)C[C@@H]2CCCC[C@@H]21)C(=O)OCC [Perindopril] | 1.2 h
49 | NNCCc1ccccc1 [Phenelzine] | 1.2 h
50 | O=C1c2ccccc2C(=O)C1c1ccccc1 [Phenindione] | 5 h
51 | CNC[C@H](O)c1cccc(O)c1 [Phenylephrine] | 2.1 h
52 | CC[C@@H]1C(=O)OC[C@@H]1Cc1cncn1C [Pilocarpine] | 0.76 h
53 | CC(C)NCC(O)COc1cccc2[nH]ccc12 (centres unmarked) [Pindolol] | 3 h
54 | CCc1ccc(CCOc2ccc(CC3SC(=O)NC3=O)cc2)nc1 (centres unmarked) [Pioglitazone] | 3 h
55 | Cc1ccc(=O)n(-c2ccccc2)c1 [Pirfenidone] | 2 h
56 | c1cc(CN2CCCNCCNCCCNCC2)ccc1CN1CCCNCCNCCCNCC1 [Plerixafor] | 4.4 h
57 | COc1cc([C@@H]2c3cc4c(cc3[C@H](O)[C@H]3COC(=O)[C@H]23)OCO4)cc(OC)c1OC [Podofilox] | 1 h
58 | C[n+]1ccccc1/C=N/O [Pralidoxime] | 1.233 h

Same assay, conditions: in vivo; cited from earlier work

Row | Structure (SMILES) | ½ Life
59 | CCNC(=O)[C@@H]1CCCN1C(=O)[C@H](CCCNC(=N)N)NC(=O)[C@H](CC(C)C)NC(=O)[C@@H](CC(C)C)NC(=O)[C@H](Cc1ccc(O)cc1)NC(=O)[C@H](CO)NC(=O)[C@H](Cc1c[nH]c2ccccc12)NC(=O)[C@H](Cc1c[nH]cn1)NC(=O)[C@@H]1CCC(=O)N1 [Leuprolide] | 3 h
60 | COC(=O)C(c1ccccc1)C1CCCCN1 (centres unmarked) [Methylphenidate] | 3 h
61 | COc1ccc2cc1Oc1cc3c(cc1OC)CC[N+](C)(C)[C@H]3Cc1ccc(cc1)Oc1c(OC)c(OC)cc3c1[C@@H](C2)[N+](C)(C)CC3 [Metocurine Iodide] | 3 h
62 | Cc1ncc2n1-c1ccc(Cl)cc1C(c1ccccc1F)=NC2 [Midazolam] | 1.8 h
63 | Nc1cc(N2CCCCC2)nc(N)[n+]1[O-] [Minoxidil] | 4.2 h
64 | CC(C)(O)c1ccccc1CC[C@@H](SCC1(CC(=O)O)CC1)c1cccc(/C=C/c2ccc3ccc(Cl)cc3n2)c1 [Montelukast] | 2.7 h
65 | CN1CC[C@]23c4c5ccc(O)c4O[C@H]2[C@@H](O)C=C[C@H]3[C@H]1C5 [Morphine] | 2 h
66 | CC(C)C[C@H](NC(=O)[C@@H](Cc1ccc2ccccc2c1)NC(=O)[C@H](Cc1ccc(O)cc1)NC(=O)[C@H](CO)NC(=O)[C@H](Cc1c[nH]c2ccccc12)NC(=O)[C@H](Cc1c[nH]cn1)NC(=O)[C@@H]1CCC(=O)N1)C(=O)N[C@@H](CCCNC(=N)N)C(=O)N1CCC[C@H]1C(=O)NCC(N)=O [Nafarelin] | 3 h
67 | CS(=O)(=O)Nc1ccc([N+](=O)[O-])cc1Oc1ccccc1 [Nimesulide] | 1.8 h
68 | CC[C@H](C)[C@@H]1NC(=O)[C@H](Cc2ccc(O)cc2)NC(=O)[C@@H](N)CSSC[C@@H](C(=O)N2CCC[C@H]2C(=O)N[C@@H](CC(C)C)C(=O)NCC(N)=O)NC(=O)[C@H](CC(N)=O)NC(=O)[C@H](CCC(N)=O)NC1=O [Oxytocin] | 0.0166 h
69 | CC(=O)O[C@H]1C[C@@H]2CC[C@@H]3[C@H](CC[C@@]4(C)[C@H]3C[C@H]([N+]3(C)CCCCC3)[C@@H]4OC(C)=O)[C@@]2(C)C[C@@H]1[N+]1(C)CCCCC1 [Pancuronium] | 1.5 h
70 | COc1ccc(Cc2nccc3cc(OC)c(OC)cc23)cc1OC [Papaverine] | 0.5 h
71 | CSCC[C@H](NC(=O)[C@H](Cc1c[nH]c2ccccc12)NC(=O)CCNC(=O)OC(C)(C)C)C(=O)N[C@@H](CC(=O)O)C(=O)N[C@@H](Cc1ccccc1)C(N)=O [Pentagastrin] | 0.166 h
72 | CCCC(C)C1(CC)C(=O)NC(=O)NC1=O (centres unmarked) [Pentobarbital] | 5 h
73 | CCOC(=O)C1(c2ccccc2)CCN(C)CC1 [Pethidine] | 1 h
74 | CC(N)C(O)c1ccccc1 (centres unmarked) [Phenylpropanolamine] | 2.1 h
